Laboratory results taken from paper PMC6718478, “A Comprehensive Antimicrobial Activity Evaluation of the Recombinant Microcin J25 Against the Foodborne Pathogens Salmonella and E. coli O157:H7 by Using a Matrix of Conditions” (Frontiers in Microbiology, 2019).
Positions of bridges follow the written chain, without caps; N, C: chain ends. Residues, ends and D or L forms follow the SMILES beside them.

Columns and labels:
[1] = system: E. coli O157:H7; assay: Antimicrobial activity in different growth phases, viable plate counting; assay type: cell-based, Escherichia coli; conditions: 4 × MIC, LB, plate counts, n = 6
Protocol: (§1) The effect of growth phase on the anti-Salmonella and -E. coli O157:H7 activity of recombinant MccJ25 was determined by the viable plate counting method, as described previously ([Ma et al., 2016]; [Fan et al., 2017]), with minor modifications. Cultures of the strains in the early-log phase, late-log phase and stationary phase were washed, concentrated and diluted with sterilized phosphate-buffered saline (PBS) to approximately 10^7 CFU/mL. Then, 1 mL was incubated individually in 9 mL of PBS to reach an approximate 10^6 CFU/mL final concentration. The bacterial cells were then inoculated into 5 mL of LB containing different concentrations of MccJ25 (0, 1 × MIC, 2 × MIC, and 4 × MIC). At 0, 12, 24, and 48 h post incubation, the cultures (0.1 mL) were serially diluted with PBS and plated on LB and TSA agar. The plates were incubated at 37°C overnight to count colony. Colonies were counted to determine CFU/mL. The experiment was conducted with two replicates in three independent trials.

[2] = system: E. coli O157:H7; assay: Live/Dead BacLight viability assay; assay type: cell-based, Escherichia coli; conditions: at the MIC level, 2 h at 37°C, 5 × 10^4 CFU/mL in LB; fluorescence microscopy
Protocol: (§2) A Live/Dead BacLight Bacterial Viability Kit 7 (Molecular Probes, Inc., Eugene) was used to test bacterial viability. Briefly, 5 × 10^4 CFU/mL S. Pullorum, S. Typhimurium, and E. coli O157:H7 were inoculated into 1 mL of LB containing recombinant MccJ25 at the MIC level specific for each pathogen. Bacterial cultures were incubated at 37°C for 2 h and then incubated in the dark at ambient temperature with SYTO 9 and propidium iodide for 15 min. Bacteria were observed using a fluorescence microscope (EVOS XL Cell Imaging System).

[3] = system: IPEC-J2 cells; assay: Salmonella-induced damage to IPEC-J2 cells (TEER, FD4, LDH); assay type: cell-based; conditions: 2 μg/mL for 6 h, Salmonella for 2 h; n = 9
Protocol: FIGURE S2 | Recombinant MccJ25 inhibited Salmonella-induced damage to IPEC-J2 cells. IPEC-J2 cells were cultured with or without recombinant MccJ25 (2 μg/mL) for 6 h in the absence or presence of Salmonella for 2 h. TEER (A), FD4 level (B), and LDH activity (C) in the IPEC-J2 cells were determined. Data are the means ± SEMs of three independent experiments, n = 9. Different superscript lowercase letters within each group indicate significant differences (P < 0.05); The asterisk denotes a significant difference in comparison with the control group (*P < 0.05, **P < 0.01).

[4] = system: S. Typhimurium; assay: Antimicrobial activity in different growth phases, viable plate counting; assay type: cell-based, Salmonella Typhimurium; conditions: LB, plate counts, n = 6; for time within which bacteria were killed: early and late-log phase cells
Protocol: as §1

[5] = system: S. Typhimurium; assay: Antimicrobial activity in biological food products (skim milk, egg yolk, mincemeat extract); assay type: cell-based, Salmonella Typhimurium; conditions: 4 × MIC, SKM, 37°C; for viable bacteria after 24 h in the three food products: SEY, SMS, data not shown
Protocol: (§3) To further investigate the effects of recombinant MccJ25 on Salmonella and E. coli O157:H7 in different biological food products, sterile skim milk, egg yolk and mincemeat (pork) extract were collected and used as described previously with minor modifications ([Sable et al., 2000]). The skim milk, egg and mincemeat samples were purchased from a Carrefour store in Beijing. Specimens were kept on ice packs in coolers until they reached the laboratory, where they were stored at 4°C. The skim milk (SKM) and mincemeat supernatant (SMS) were autoclave sterilized at 121°C for 20 min. After autoclaving, the SKM and SMS samples were stored at 4°C for further use. The eggs were sterilized with 75% ethanol and transferred into an exceptionally clean bench to collect the egg yolk (SEY). The SEY was diluted 1:1 with sterile distilled water. Biological product samples were mixed with a final concentration of 4 × MIC of recombinant MccJ25 solution in sterile saline water (0.85%). They were then inoculated with S. Pullorum, S. […] Sterilized saline water (SSW) with the recombinant MccJ25 was utilized for comparison. This assay was performed to obtain the desired quantity of cells. The mixtures were tested after 24 h of incubation at 37°C with shaking (250 rpm). After incubation, Salmonella species and E. coli O157:H7 were serially diluted with PBS and plated on LB and TSA agar. The plates were incubated at 37°C overnight to count colony. Colonies were counted to determine CFU/mL. The experiment was conducted with two replicates in three independent trials.

[6] = system: S. Pullorum; assay: pH stability, inhibition zone read-out; assay type: physicochemical, Salmonella Pullorum; conditions: pH 2.0 to 9.0 for 2 h; 150 μL of 1 × MIC; Oxford cup inhibition zone on LB agar, overnight 37°C; three replicate experiments
Protocol: Assays of the antibacterial activity of recombinant MccJ25 at different temperatures (25, 37, 45, 55, 65, 75, 85, and 95°C for 20 min) and different pH values (pH 2.0, 3.0, 4.0, 5.0, 6.0, 7.0, 8.0, and 9.0 for 2 h) were performed. The assays were conducted as described previously ([Chen et al., 2009]; [Meng et al., 2019]), with slight modifications. LB agar inoculated with the indicator bacteria S. Pullorum (approximately 10^5 viable cells per mL) was poured over plates fitted with Oxford cups to make wells. 150 μL of 1 × MIC final concentration of recombinant MccJ25 samples previously treated under various conditions were added to the wells. The agar overlays were incubated overnight at 37°C, and the inhibition zones were recorded.

[7] = system: S. Typhimurium; assay: Live/Dead BacLight viability assay; assay type: cell-based, Salmonella Typhimurium; conditions: at the MIC level, 2 h at 37°C, 5 × 10^4 CFU/mL in LB; fluorescence microscopy
Protocol: as §2

[8] = system: S. Pullorum; assay: Antimicrobial activity in different growth phases, viable plate counting; assay type: cell-based, Salmonella Pullorum; conditions: LB, n = 6; for time to reduction to undetectable levels: early- or late-log phase cells, plate counts at 0, 12, 24, 48 h; for time to reduction to non-detectable levels: stationary phase cells, plate counts
Protocol: as §1

[9] = system: S. Pullorum; assay: Antimicrobial activity in biological food products (skim milk, egg yolk, mincemeat extract); assay type: cell-based, Salmonella Pullorum; conditions: 4 × MIC, 37°C; for viable bacteria after 24 h in the three food products: SKM, SEY, SMS, data not shown; for CFU reduction after 24 h: inoculum 10^6 CFU/mL, 250 rpm, plate counts, n = 6
Protocol: as §3

## CC[C@H](C)[C@H](NC(=O)CNC(=O)[C@@H](NC(=O)[C@H](Cc1ccccc1)NC(=O)[C@H](Cc1ccc(O)cc1)NC(=O)[C@@H]1CCC(=O)NCC(=O)NCC(=O)N[C@@H](C)C(=O)NCC(=O)N[C@@H](Cc2c[nH]cn2)C(=O)N[C@@H](C(C)C)C(=O)N2CCC[C@H]2C(=O)N1)C(C)C)C(=O)NCC(=O)N[C@H](C(=O)N1CCC[C@H]1C(=O)N[C@H](C(=O)N[C@@H](CO)C(=O)N[C@@H](Cc1ccccc1)C(=O)N[C@@H](Cc1ccc(O)cc1)C(=O)NCC(=O)O)[C@@H](C)CC)[C@@H](C)O [recombinant MccJ25, microcin J25] (GGAGHVPEYFVGIGTPISFYG-OH; lactam N-8 (inferred); C-terminus assumed)
[1]; early-log phase cells
  time to reduction to non-detectable levels: ≤ 12 h
[1]; late-log phase cells
  time to reduction to non-detectable levels: ≤ 24 h
[1]; stationary phase cells
  time to reduction to non-detectable levels: 48 h
[2]
  bactericidal activity, Live/Dead staining (SYTO 9 / propidium iodide): excellent bactericidal activity
[3]
  S. Pullorum-induced decrease in TEER: attenuated
  S. Pullorum-induced increase in FD4 level: attenuated
  S. Pullorum-induced increase in LDH level: attenuated
[4]; 2 × MIC
  time within which bacteria were killed: ≤ 48 h
[4]; 4 × MIC
  time within which bacteria were killed: ≤ 24 h
[4]; stationary phase cells, 4 × MIC
  time to reduction to non-detectable levels: 48 h
[5]; inoculum 10^3 CFU/mL
  viable bacteria after 24 h in the three food products: no viable bacteria were detected
[5]; inoculum 10^4 CFU/mL
  viable bacteria after 24 h in the three food products: no bacteria were detected
[5]; SEY, and SMS, inoculum 10^6 CFU/mL, plate counts, n = 6
  CFU reduction after 24 h: approximately 10^3 CFU/mL
[6]
  effect of pH on activity against S. Pullorum (pH stability): no effect
[7]
  bactericidal activity, Live/Dead staining (SYTO 9 / propidium iodide): excellent bactericidal activity
[8]; 8 μg/mL
  time to reduction to undetectable levels: ≤ 24 h
  time to reduction to non-detectable levels: ≤ 48 h
[8]; 4 × MIC
  time to reduction to undetectable levels: ≤ 12 h
[8]; 16 μg/mL
  time to reduction to non-detectable levels: ≤ 24 h
[9]; inoculum 10^3 CFU/mL
  viable bacteria after 24 h in the three food products: no viable bacteria were detected
[9]; inoculum 10^4 CFU/mL
  viable bacteria after 24 h in the three food products: no bacteria were detected
[9]; sterilized egg yolk (SEY), diluted 1:1
  CFU reduction after 24 h: ~8 × 10^3 CFU/mL
[9]; sterilized mincemeat supernatant (SMS)
  CFU reduction after 24 h: ~7 × 10^3 CFU/mL
[9]; sterilized skim milk (SKM)
  CFU reduction after 24 h: approximately 10^4 CFU/mL
